Experiments:
A2058 melanoma cells = assay: Malachite Green Phosphate Assay (free phosphate generation); assay type: cell-based, human; conditions: miRNA-193a-3p at 10 nM, vs untreated, mock, scrambled
Procedure: 2000 A2058 melanoma cells were seeded per well in a 96 well plate. 24h after seeding, cells were transfected with different concentrations of miRNA-193a-3p, scrambled control, siNT5E and siPool as control. Malachite Green Phosphate Assay (Sigma Aldrich) was used to measure the liberation of phosphate from nucleoside triphosphates ATP following inhibition of CD39 (ENTPD1) and CD73 (NT5E) as target genes of miRNA-193a-3p 24h and 48h post transfection. The rapid colour formation from the reaction can be conveniently measured on a plate reader (600-660 nm).

[1] = system: A549, H460, HEP3B, HUH7, A2058, BT549; assay: RNA-sequencing differential expression in six cancer cell lines; assay type: cell-based, human; conditions: for Down-regulated genes: adjusted P<0.1, 10 nM, 24h
Procedure: Six human cancer cell lines were cultured in appropriate media (Table 3) and seeded into 6-well plates 24h before transfection with 10 nM miRNA-193a-3p or mock using Lipofectamine RNAiMAX (Thermofisher). Reagents were aspirated 16h after transfection and cells were passaged into new 6-well plates. Media was aspirated 24h after transfection and plates were stored at −80° C. Three independent replicates were performed for each cell line.
RNA was isolated using the miRNeasy Mini kit (Qiagen). The procedure included on-column DNase treatment. RNA concentration was measured on NanodropOne. 150 ng of each independent replicate was pooled and 450 ng samples (Table) were submitted to GenomeScan BV (Leiden, The Netherlands).
PolyA enrichment was performed followed by next generation RNA-Sequencing using Illumina NovaSeq 6000 at GenomeScan BV. The data processing workflow included raw data quality control, adapter trimming, and alignment of short reads. The reference GRCh37.75.dna.primary_assembly was used for alignment of the reads for each sample. Based on the mapped locations in the alignment file the frequency of how often a read was mapped on a transcript was determined (feature counting). The counts were saved to count files, which serve as input for downstream RNA-Seq differential expression analysis.
Differential expression analysis was performed on the short read data set by GenomeScan BV. The read counts were loaded into the DESeq package v1.30.0, a statistical package within the R platform v3.4.4. DESeq was specifically developed to find differentially expressed genes between two conditions (mock versus miRNA-193a-3p) for RNA-Seq data with small sample size and over-dispersion. […]

[2] = system: twelve syngeneic tumor models; assay: Primary tumor growth in a panel of twelve syngeneic tumor models (significance); assay type: in vivo, mice
Text: In this study, the effect of miRNA-193a formulated in diamino lipid nanoparticles was investigated on the primary tumor growth in a panel of twelve syngeneic tumor models. Six to eight weeks mice (Shanghai Lingchang Bio-Technology Co. Ltd, Shanghai, China) were subcutaneously injected with an appropriate number of syngeneic cancer cells, depending on the cancer model (see Table 18). At the time of randomization, tumor volume (TV) was approximately 80-120 mm^3. Body weights and TVs (caliper measurements) were determined 2-3 times/week. After randomization (indicated as day 0) mice received PBS or miR-193a (formulated in diamino lipid nanoparticles) treatments as shown in Table 19. Each tumor model had two groups as depicted in Table 19. Mice were scheduled to be euthanized after two weeks of follow up after a maximum of four weeks of treatment.

[3] = system: orthotopic human Hep3b hepatocellular carcinoma tumors; assay: Orthotopic Hep3b model, miRNAs in NOV340, AFP and tumor weight (Example 4.13); assay type: in vivo, mice; conditions: NOV340 nanoparticles, 6 mg/kg iv QODx9 for 3 weeks; day 39
Procedure: Six to eight weeks old female SCID/Beige mice (Shanghai Lingchang Bio-Technology Co. Ltd, Shanghai, China) were orthotopically implanted with a single 2×2×2 mm piece of a subq grown Hep3b tumor into the left liver lobe. Mice were randomized based on day 21 AFP levels. At the time of randomization, the AFP levels (ng/ml plasma) ranged between 401 and 40628 ng/ml (median 2536, IQR=1037-5510). Treatments were with sorafenib, with vehicle control, or with various miRNAs (or scrambled miRNA control) encapsulated in NO340 lipid nanoparticles (Simonson and Das, Mini Rev Med Chem, 2015, 15(6): 467-474, PMID: 25807941). Treatments started on day 22 and continued for three weeks (dosing scheme in Table 21). AFP was measured once a week for 4 weeks, and BW was measured twice a week. At the end of the study tumor weights were also determined. QOD×9=one injection every other day for nine times; BID=twice daily; po=per oral.
After terminal sacrifice on day 39, AFP levels and tumor weights were determined.

4T1 = assay: Cell motility, Boyden chamber assay; assay type: cell-based, mouse; conditions: 10 nM
Procedure: (§1) To check the migratory ability of cells, a Boyden Chamber assay was performed, which is based on a chamber of two medium-filled compartments separated by a […] pore size membrane (BD falcon). In this assay, depending on cell type 60,000-120,000 cells were seeded in the upper compartment of the membrane in serum free medium and were allowed to migrate through the pores of the membrane into the lower compartment, in which serum is present in the media. The serum acts as a chemoattractant. After an appropriate incubation time, the membrane between two compartments was fixed, stained and 6 different images from each membrane were taken. The number of migratory cells were counted using Image J analysis.
Different biological effects of miRNA-193a-3p have been tested in various cancer cell lines (see Table 13). For this, various cells were treated with miRNA-193a at different concentrations (1, 3, 10 nM). For all experiments controls (untreated, mock and scrambled) were measured. All assays were performed at 24h, 48h and 72h time points. […] All the results have been quantified and normalized to the mock control.
miRNA-193a treatment in various cancer cell lines decreased cell viability over time as measured by either an MTS assay or by cell count. It enhanced apoptosis induction over time as measured by a caspase 3/7 apoptosis assay. […]

A2058 cells = assay: In vitro transwell migration assay; assay type: cell-based, human; conditions: miRNA-193a-3p at 10 nM; vs scrambled
Procedure: as §1
To assess the impact of miRNA-193a-3p on adenosine generation, the release of free phosphate in A2058 melanoma cells was measured as a read out for ATP, ADP, and AMP dephosphorylation in supernatants. […] Similar results were found by measuring the direct amount of adenosine in cell culture supernatants (FIG. 16B). Further, the role of miRNA-193a in A2058 cancer cell migration was investigated.

## miRNA-193a: duplex of the miRNA-193a-3p of SEQ ID NO: 218 (mimic, sense) with antisense strand SEQ ID NO: 219; naked in vitro, formulated in vivo (sense UGGGACUUUGUAGGCCAGUUTT; antisense AACUGGCCUACAAAGUCCCAGU; chemistry not given here; listed as Homo sapiens)
A2058 melanoma cells
  Free phosphate generation: reduced the level of free phosphate production
[1]; # cell lines =6
  % Predicted: 83%
  Down-regulated genes: 35
[1]; # cell lines ≥1
  % Predicted: 58%
  Down-regulated genes: 352
[1]; # cell lines ≥2
  % Predicted: 65%
  Down-regulated genes: 282
[1]; # cell lines ≥3
  % Predicted: 67%
  Down-regulated genes: 242
[1]; # cell lines ≥4
  % Predicted: 66%
  Down-regulated genes: 218
[1]; # cell lines ≥5
  % Predicted: 63%
  Down-regulated genes: 181
[2]; CT26, Renca, and Hepa1-6 models
  Tumor growth inhibition (TGI), significance: did not induce significant TGI
[2]; H22, Pan02, B16-BL6, RM-1, B16F10, MC38, A20, and EMT-6 models
  Tumor growth inhibition (TGI), significance: significantly induced tumor growth inhibition
[3]
  Growth of Hep3b HCC tumors measured by AFP and tumor weight: did not inhibit growth
4T1
  Motility (18 to 24 h): ↓
A2058 cells
  Migration ability of A2058 cells: significantly suppressed migration ability

— US20210038732A1, “ANTICANCER MICRORNA AND LIPID FORMULATIONS THEREOF” (INTERNA TECHNOLOGIES B.V., priority 2018, published 2021)
